Measured values taken from patent US20100003217A1, “Compounds and Pharmaceutical Compositions for the Treatment of Viral Infections” (priority 2008, published 2010).
Where “and” joins values, the source holds several entries; their conditions need not be identical. Equal values may be shown once.

Tested on: rat primary hepatocytes
Assay: Metabolic disposition of [^14C]-Compound 1 and [^14C]-2′-C-methyl guanosine in rat primary hepatocytes (incubation medium, cellular extracts, nucleotide levels)
Format: in vitro ADME, Sprague Dawley rat
Conditions: for metabolites observed in cellular extracts (% of total radioactivity): rat hepatocytes (Rs448, Rs458)
Protocol: Primary hepatocytes: Freshly isolated cells from animal and human liver were obtained in suspension on ice. Cells were pelleted by centrifugation at 70-75×g (rat) or 95-90×g (monkey and human) and resuspended at 0.8 million cells per mL of platting medium (William's E supplemented with 5% FBS, 0.5% penicillin-streptomycin, 1% L-glutamine, 4 μg/mL insulin and 1 μM dexamethasone). Multi-well collagen I-coated plates (rat tail collagen type I; 12- or 6-well) were then seeded by addition of 1 mL (12-well; 0.8 million cells/well) or 2 mL (6-well; 1.6 million cells/well) of cell suspension. The plates were gently shaken to evenly distribute the cells and placed in an incubator at 37° C. for approximately 4 to 6 hours to allow cells to attach. Once cells were attached, the platting medium was removed and replaced with hepatocyte culture medium (William's E supplemented with penicillin-streptomycin, 1% L-glutamine, 1% insulin-transferrin-selenium and 0.1 μM dexamethasone). Cells were left overnight in an incubator at 37° C. to acclimatize to culture and the medium.
Hepatocyte incubations with radiolabeled Compound 1 and 2′-C-methyl guanosine, both labeled in the C-8 position of the guanine moiety, were conducted at a final volume of 2.0 mL hepatocyte culture medium/well ([…]). Culture medium from overnight incubation of cells was removed and replaced with fresh medium, pre-warmed to 37° C., containing 1 or 10 μM [^14C]-Compound 1 ([…]) or [^14C]-2′-C-methyl guanosine (127 DPM/μmol) from a stock solution in DMSO (final DMSO concentration was 0.1%) or 50% ethanol (final ethanol concentration was 0.2%). After 1, 4, 8 and 24 hours, 0.5-1.0 mL of incubation medium was removed and stored at −20° C. until analysis (described below). The remaining medium was discarded and cell monolayers were carefully washed two times with ice-cold PBS. Following the last wash, all PBS was carefully removed and 1.0 mL of extraction solution (ice-cold 70% methanol) added. Cells were scrapped off and suspended in the extraction solution, transferred to 2 mL polypropylene microfuge tubes and intracellular contents extracted overnight at −20° C.
Preliminary identification of putative metabolites was conducted by comparing the retention time of observed metabolites in incubation medium and cellular extracts with retention times obtained with chemically synthesized standards using the chromatography conditions described below. Further identification of 2′-C-methyl guanosine nucleotides (mono-, di- and triphosphate) was carried out by incubating cellular extract samples with alkaline phosphatase (10 units for 60 min at 37° C.) and comparing the HPLC retention times of the resulting nucleosides with that of authentic 2′-C-methyl guanosine.
Cellular extracts were prepared by centrifugation at 16,000 RCF using an Eppendorf microcentrifuge (Eppendorf, Model 5415D) for 10 min to remove cellular debris. An aliquot of 5-10 μL of the supernatant was added to 5 mL of EcoLite™ (MP, Irvine, Calif.) liquid scintillation cocktail and radioactivity measured by liquid scintillation counting (LSC) using a Beckman Coulter LS6500 multipurpose liquid scintillation counter (Beckman Instruments, Fullerton, Calif.). The remaining sample was then dried using a Labconco refrigerated centrivap concentrator (Labconco, Kansas City, Mo.). Dry extracts were reconstituted in 120 μL of HPLC-grade water and centrifuged at 16,000 RCF using an Eppendorf microcentrifuge for 10 min. Prior to HPLC analysis (described below), radioactivity of the concentrated extracts was measured by LSC using 5 μL aliquots. Extraction recovery was then determined by comparing total radioactivity in extracts before and after drying. The remaining extract was then analyzed by HPLC with online radioactivity detection using a Flow Scintillation Analyzer Radiomatic™ 515TR. Radioactivity in the separated components was quantified by integrating the peaks using Flo-One™ Software (Perkin Elmer Life Sciences). […]

CC(C)(CO)C(=O)SCCOP(N)(=O)OC[C@H]1O[C@@H](n2cnc3c(=O)[nH]c(N)nc32)[C@](C)(O)[C@@H]1O (mixture of isomers) [Compound 3, {9-[(2R)2-C-methyl-β-D-ribo-furanosyl]-guanin}-5′-yl-O-(hydroxy-tert-butyl-S-acyl-2-thioethyl) phosphoramidate]
metabolites observed in cellular extracts (% of total radioactivity) (10 μM [^14C]-Compound 1, 8 h): BLD
metabolites observed in cellular extracts (% of total radioactivity) (10 μM [^14C]-Compound 1, 24 h): BLD
metabolites observed in medium (% of total radioactivity) (rat hepatocytes (Rs458), 1 μM [^14C]-Compound 1, 0 h): BLD
metabolites observed in medium (% of total radioactivity) (rat hepatocytes (Rs458), 1 μM [^14C]-Compound 1, 1 h): BLD
metabolites observed in medium (% of total radioactivity) (rat hepatocytes (Rs458), 1 μM [^14C]-Compound 1, 8 h): BLD
metabolites observed in medium (% of total radioactivity) (rat hepatocytes (Rs458), 1 μM [^14C]-Compound 1, 24 h): 1.7% and 1.71%
metabolites observed in medium (% of total radioactivity) (rat hepatocytes (lots Rs448, Rs458), 10 μM [^14C]-Compound 1, 0 h): BLD
metabolites observed in medium (% of total radioactivity) (rat hepatocytes (lots Rs448, Rs458), 10 μM [^14C]-Compound 1, 1 h): BLD
metabolites observed in medium (% of total radioactivity) (rat hepatocytes (lots Rs448, Rs458), 10 μM [^14C]-Compound 1, 4 h): 0.9%
metabolites observed in medium (% of total radioactivity) (rat hepatocytes (lots Rs448, Rs458), 10 μM [^14C]-Compound 1, 8 h): 1.4% and 2.1%
metabolites observed in medium (% of total radioactivity) (rat hepatocytes (lots Rs448, Rs458), 10 μM [^14C]-Compound 1, 24 h): 1.4% and 1.7%
